Measured values: paper PMC4374931 (PLoS ONE, 2015)
Like-named read-outs stand apart in the source and are kept apart here.

Assays:
firefly luciferase = experiment: Inhibition of firefly luciferase in cell lysates; assay type: biochemical; conditions: compounds 10 μM added to lysates of cells treated with 100 nM DHT; data not shown
Method: AIZ-AR cells were treated with 100 nM DHT for 24 hours. Cell lysates containing firefly luciferase, having a catalytic activity corresponding to model ligand-treated cells, were isolated. Tested compounds (10 μM) were added to cell lysates and luciferase activity was measured.

androgen receptor [1] = target: androgen receptor; design: method as in Wilkinson et al.; conditions: published data; ref Wilkinson et al.; cited from earlier work
human androgen receptor [2] = target: T1, human androgen receptor (Homo sapiens, UniProt P10275); experiment: Gene reporter assay in AIZ-AR cells, agonist mode (luciferase); assay type: cell-based
Method: (§1) AIZ-AR cells were seeded in 96-well plates at density 5x10^4 cells per well. […] After the treatments, cells were lysed and luciferase activity was measured in 96-well plate format using Tecan Infinite M2000 plate luminometer.
(§2) Dose-response analyses assays were performed in two different experimental layouts. […] Where appropriate, IC50 (half maximal inhibitory concentration) values were calculated.

human androgen receptor [3] = target: T1, human androgen receptor; experiment: Gene reporter assay in AIZ-AR cells, antagonist mode with DHT (100 nM); assay type: cell-based
Method: as §1, §2

androgen receptor [4] = target: androgen receptor; design: method as in Sedlak et al.; conditions: published data; ref Sedlak et al.; cited from earlier work
in vitro = assay type: cell-based; conditions: human
Method: AIZ-AR cells were seeded in 96-well plates at density 5x10^4 cells per well. […] Following the incubation, MTT assay was measured spectrophotometrically at 540 nm using Tecan Infinite M2000 plate luminometer.

androgen receptor [5] = conditions: cited from earlier work

T1 sequence (P10275 whole entry): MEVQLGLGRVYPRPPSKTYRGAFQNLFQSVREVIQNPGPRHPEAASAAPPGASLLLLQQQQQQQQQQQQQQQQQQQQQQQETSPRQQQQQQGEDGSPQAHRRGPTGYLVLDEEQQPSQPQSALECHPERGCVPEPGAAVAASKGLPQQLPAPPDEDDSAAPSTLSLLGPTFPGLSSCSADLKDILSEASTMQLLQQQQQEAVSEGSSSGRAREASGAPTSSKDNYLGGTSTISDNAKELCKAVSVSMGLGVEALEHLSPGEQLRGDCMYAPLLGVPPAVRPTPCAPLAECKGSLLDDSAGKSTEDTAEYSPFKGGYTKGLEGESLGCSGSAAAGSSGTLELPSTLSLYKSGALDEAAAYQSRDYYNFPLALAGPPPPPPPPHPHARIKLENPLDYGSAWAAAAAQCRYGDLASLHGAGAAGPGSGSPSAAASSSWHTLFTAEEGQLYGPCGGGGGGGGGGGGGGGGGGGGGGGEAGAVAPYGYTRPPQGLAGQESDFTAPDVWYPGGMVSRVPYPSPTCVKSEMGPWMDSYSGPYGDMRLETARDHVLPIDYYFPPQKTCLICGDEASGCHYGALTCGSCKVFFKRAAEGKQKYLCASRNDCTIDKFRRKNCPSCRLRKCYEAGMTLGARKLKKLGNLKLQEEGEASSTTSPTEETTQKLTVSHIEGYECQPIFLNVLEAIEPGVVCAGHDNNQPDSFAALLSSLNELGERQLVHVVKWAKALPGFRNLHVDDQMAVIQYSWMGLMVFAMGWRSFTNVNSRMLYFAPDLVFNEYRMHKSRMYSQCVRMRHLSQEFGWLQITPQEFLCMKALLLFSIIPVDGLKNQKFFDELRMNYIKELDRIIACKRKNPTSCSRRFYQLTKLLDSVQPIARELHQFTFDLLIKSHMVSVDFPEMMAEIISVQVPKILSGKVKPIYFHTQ

SMILES | influence on firefly luciferase catalytic activity (firefly luciferase) | Literature Log EC50 (androgen receptor [1]) | Log EC50 (human androgen receptor [2]; Clone 8, 24 h) | Log EC50 (human androgen receptor [2]; Clone 14, 24 h) | agonist-induced luciferase activity (human androgen receptor [3]; antagonist mode, 10^-5 M, probably due to luciferase inhibition) | effect on agonist-induced luciferase activity in antagonist mode (human androgen receptor [3]; with DHT (100 nM) or testosterone (10 nM) as agonist, 24 h) | Literature Log EC50 (androgen receptor [4]) | viability at 24 h, 0.1 nM (in vitro) [%] | viability at 24 h, 1 nM (in vitro) [%] | viability at 24 h, 10 nM (in vitro) [%] | viability at 24 h, 100 nM (in vitro) [%] | viability at 24 h, 1 μM (in vitro) [%] | viability at 24 h, 10 μM (in vitro) [%] | Response of AR-LUX cell line (induction) (androgen receptor [5])
O=c1c(-c2ccc(O)cc2)coc2cc(O)cc(O)c12 [Genistein, genistein] | significantly influenced luciferase activity | > -5.00 | -6.62 ± 0.42 | -6.79 ± 0.23 | massive drop | strongly augmented agonist-induced luciferase activity | > -5.00 | 100 | 96.5 ± 2.4 | 96.7 ± 3.3 | 103 ± 7.5 | 103 ± 7.5 | 120 ± 6.4 | 
C[C@]1(O)CC[C@H]2[C@@H]3CCC4=CC(=O)CCC4=C3C=C[C@@]21C [R1881] |  |  |  |  |  |  |  |  |  |  |  |  |  | maximally five-fold induction
